“Also recorded” adds a separate entry of the source.
Experiments:
healthy subjects [1] = experiment: Heart rate by triplicate ECG after Compound 03-5 with or without nadolol; format: in vivo, human; settings: 6 mg Compound 03-5 with pre-administration of 1 mg nadolol
Protocol: FIGS. 11A-11B show the effects of Compound 03-5 monotherapy (6 mg) on heart rate (FIG. 11A) and administered 2 hours after nadolol (1-40 mg) (FIG. 11B). Heart rate was measured by triplicate ECG recordings. Data are presented as means changes from time-matched measures recorded on the day before the first dose of study drug (Day −1).
Healthy volunteers were be enrolled into 2 cohorts in a study to undertake within-subject dose titration of Compound 03-5 and/or nadolol in order to explore doses/dose combinations that mitigate peripheral effects of Compound 03-5, e.g. on heart rate, while preserving possible central effects of Compound 03-5 on cerebral perfusion and pupillary light reflex.
Cohort D1 enrolled 8 healthy subjects and undertook an evaluation of the effects of treatment on ECG following repeat dosing of Compound 03-5 in the presence of escalating doses of nadolol according to following schematic.
Eight healthy subjects aged 18-50 years were enrolled into Cohort D1 and received escalating doses of Compound 03-5 (3-12 mg) administered once daily 2 hours follow pre-administration of nadolol (1-40 mg). On all dosing days, study drug(s) were administered orally after an overnight fast of at least 8 hours. […]

[2] = tested on: healthy volunteers aged 55-75 years; experiment: CANTAB cognition battery, Cohort D2; format: in vivo, human; settings: Compound 03-5 1, 3, 10 mg on Days 1-3, 2 hours after nadolol 3 mg
Protocol: CANTAB data from healthy adults 55-75 years of age (N=4) who received once-daily 3 mg nadolol and Compound 03-5 (1, 3, and 10 mg) on Day1, Day 2 and Day 3. […] Data are presented as mean changes from the within-day pre-dose assessment.
(§1) In Cohort D2, 8 healthy volunteers aged 55-75 years were admitted on Day −1 for a 5-day confinement period at the research facility. During this confinement, subjects received escalating doses of open label Compound 03-5 (1-10 mg) once-daily from Day 1 through Day 3 2 hours after pre-administration of open-label nadolol (3 mg) one each for the 3 dosing days according to the following schematic. Subjects remained in-residency until all study procedures are completed on Day 4.
? Compound 03-5 dose administration. Compound 03-5 was administered as escalating doses on Day 1 (1 mg), Day 2 (3 mg) and Day 3 (10 mg). CANTAB was conducted twice in all subjects on the day prior to start of dosing (Day −1) to familiarize subjects with the platform, and prior to dosing and approximately 3 hours after Compound 03-5 administration on Days 1, 2, and 3.

healthy subjects [3] = experiment: Peripheral effects of Compound 03-5 (glucose, potassium, tachycardia, tremor, palpitations) with nadolol; format: in vivo, human
Protocol: Data are presented as individual observations for all available subjects.
Eight healthy subjects aged 18-50 years were enrolled into Cohort D1 and received escalating doses of Compound 03-5 (3-12 mg) administered once daily 2 hours follow pre-administration of nadolol (1-40 mg). On all dosing days, study drug(s) were administered orally after an overnight fast of at least 8 hours.
Routine measures of ECG, vital signs, safety labs, physical exams and plasma sample collections for analysis of drug pharmacokinetics (PK) were undertaken according to the Schedule of Events (Table 1).
as §1

Ts65Dn mice = settings: increasing brain NE levels; cited from earlier work
subjects = experiment: Visual verbal learning test (VVLT); format: in vivo, human; settings: for effect on VVLT performance: crossover study, 3 agents plus placebo
Protocol: Subjects are presented 30 words on a screen, one at a time, for 1 second with a 1-second interval between words over a total of 1 minute. This is repeated in 3 trials. After each trial, subjects are asked to recall as many words as they can. After the third trial, there is a delay of 2.5 hours and subjects are then tested once for delayed recall. […] Since this was a crossover study, everyone who completed Part A was dosed with the 3 agents plus placebo.

healthy subjects [4] = experiment: ASL MRI cerebral perfusion before and after a single dose (Example 3); format: in vivo, human
Protocol: In a clinical study, healthy subjects were administered doses of clenbuterol ranging from 20 to 160 μg and ASL MRI was conducted prior to and after dosing with an objective to ascertain whether this neuroimaging method enables the detection of a clinically relevant CNS signal.
In a region of interest (ROI) analysis focusing on the hippocampus, which is well understood to be affected in neurodegenerative disorders, a single dose of 80 μg of clenbuterol causes a robust increase in perfusion (see FIG. 7). […] Taken together with other cohorts in which ASL MRI was conducted, a clear dose response relationship is seen between dose of clenbuterol and cerebral perfusion (FIG. 8). […] Our hypothesis is that by improving cerebral perfusion, particularly in areas of the brain that are relevant for symptoms that are commonly found in neurodegenerative diseases such as PD and AD, the administration of a β-AR agonist (such as a β-agent) will have a positive effect on clinically relevant symptoms such as memory and cognition.

patients = experiment: Cerebral blood flow relative to baseline after a single dose (Example 1); format: in vivo, human
healthy subjects [5] = experiment: Adaptive tracking test (visuomotor coordination and vigilance); format: in vivo, human; settings: single dose 160 μg clenbuterol
Excerpt: Adaptive tracking measures visuomotor coordination and vigilance. In this test, the subject uses a joystick to move a small dot so that it stays within a continuously moving circle on a computer screen (Boland 1984). During the test, the speed of the circle is adjusted in response to the subject's ability to keep the dot in the circle, ensuring that the test is adapted to the individual subject. […] The improvement shown by subjects is in the same range as that seen with subjects treated with the acetylcholinesterase inhibitor donepezil, which is in clinical use for the treatment of mild to moderate AD (Groeneveld 2016).

[6] = doses of 80 and 160 μg clenbuterol

Compound: CC(C)(C)NC[C@H](O)c1cccc(C#N)n1 [Compound 03-5, (S)-6-(2-(tert-butylamino)-1-hydroxyethyl)picolinonitrile]
- mean maximum increase in heart rate (healthy subjects [1]): 7 beats per minute
- performance in the CANTAB cognition battery [2]: improvements in cognition; also recorded: improvements in performance
- hypokalemia (blood potassium levels) (healthy subjects [3]; Compound 03-5 monotherapy 0.3 mg-6 mg, Cohorts A1-A5): Dose-dependent increases in hypokalemia

Compound: N[C@H](C(=O)O)[C@H](O)c1ccc(O)c(O)c1 [L-DOPS, L-threo-3,4-dihydroxyphenylserine]
- contextual learning (Ts65Dn mice): restored contextual learning

Compound: CC(C)(C)NCC(O)c1cc(Cl)c(N)c(Cl)c1 (stereo not shown) [clenbuterol]
- effect on VVLT performance (subjects): positive effects
- effect on VVLT performance (subjects; listed as Clenbuterol): improved performance
- VVLT improvement in correctly recalled words (subjects; immediate recall (Trial 1) and delayed recall, crossover study vs placebo): 1.5 to 2 correctly recalled words
- cerebral perfusion increase as measured by CBF (healthy subjects [4]; clenbuterol dose of 40 μg): minimal increase
- cerebral perfusion increase as measured by CBF (healthy subjects [4]; clenbuterol doses below 30 μg): do not produce significant cerebral perfusion increases
- improvements in perfusion in brain areas relevant to neuropathology of neurodegenerative disorders (healthy subjects [4]; [6]): ~25%
- increases in cerebral perfusion in hippocampus and thalamus (healthy subjects [4]; [6]): 20% to 25
- increase in hippocampal perfusion, average (healthy subjects [4]; single dose 80 μg clenbuterol, 6 healthy subjects aged 44-52, hippocampus ROI): 25%
- cerebral perfusion, change from baseline (healthy subjects [4]; single dose 160 μg clenbuterol, global, in particular hippocampus, thalamus, cortex): global increase in cerebral perfusion; also recorded: robust global increase
- cerebral blood flow (CBF) relative to baseline (patients; single dose clenbuterol 160 μg): robust global increase; also recorded: positive increase
- cerebral blood flow (CBF) relative to baseline (patients; single dose clenbuterol 160 μg and nadolol 5 mg): robust global increase
- cerebral blood flow (CBF) relative to baseline (patients; single dose clenbuterol ranging from 30 to 160 μg, tracked over 3 days): robust global increase
- performance in adaptive tracking (percent time dot kept within moving circle) (healthy subjects [5]): improved adaptive tracking; also recorded: improves
- cognition as measured by adaptive tracking and word recall (healthy subjects [5]; healthy subjects, preliminary data): improves cognition

Compound: CC(C)(C)NCC(O)COc1cccc2c1CC(O)C(O)C2 (stereo not shown) [nadolol]
- peripheral effects of Compound 03-5 on heart rate, glucose, potassium, tachycardia, tremor and palpitations (healthy subjects [3]; Cohort D1, pre-administered nadolol 1 mg up to 40 mg, Compound 03-5 3-12 mg): blocked the peripheral effects
- effects of Compound 03-5 to increase heart rate and other peripheral effects including hyper glycemia and hypokalemia (healthy subjects [3]; Cohort D1, pre-administration of 1 mg nadolol, Compound 03-5 orally up to 6 mg): substantially attenuated
- peripheral effects of Compound 03-5 on heart rate, etc. (healthy subjects [3]; Cohort D2, pre-administered nadolol 3 mg, Compound 03-5 1-10 mg): similarly blocked the peripheral effects
- effects of Compound 03-5 on blood glucose and potassium, tachycardia, tremor and palpitations (healthy subjects [3]; pre-administration of 1 mg nadolol): Concomitant attenuation
- hypokalemia caused by Compound 03-5 (blood potassium levels) (healthy subjects [3]; subjects dosed with nadolol 1-40 mg, Cohorts D1 and D2): attenuation of hypokalemia

Compound: CC(C)NCC(O)COc1cccc2[nH]ccc12 (stereo not shown) [pindolol]
- effect on VVLT performance (subjects): detrimental effect

Compound: CC(C)(C)NCC(O)c1ccc(O)c(CO)c1 (stereo not shown) [salbutamol]
- effect on VVLT performance (subjects): positive effects

Source: US12616667B2, “Compositions and methods for improving neurological diseases and disorders” (CURASEN THERAPEUTICS, INC., priority 2021, dated 2026)
